# Values quoted from earlier work in patent US20130324399A1, “FUNGICIDAL COMPOSITIONS AND METHODS OF USE” (Bayer Cropscience LP, priority 2010, published 2013).
# Tested on: Pythium spp.
# Conditions: Triadimenol, 15% w/v
smiles,measurement,value
"CC(C)(C)C(O)C(Oc1ccc(Cl)cc1)n1cncn1 (stereo not shown) [Triadimenol, triadimenol]",activity against Pythium spp.,no activity
